Test results as given in patent US20080044493A1, “Agent For Ameliorating The Maximum Passage Time Through Digestive Tract, Agent For Ameliorating Passage Time Through Digestive Tract And Preventive For Colon Cancer” (priority 2004, published 2008).

How the values were obtained:
[1] = test system: healthy subject (1 person) not suffering from constipation; test: Test Example 1: transit time through the digestive tract by radio-opaque markers, with fecal weight and defecation frequency; format: in vivo, human; conditions: for Maximum Transit Time through Digestive Tract (average) / Transit Time through Digestive Tract (average): Standard Deviation in parentheses
From the text: The method proposed by Hinton et al. was invented to measure the time required from food ingestion to defecation, namely, transit time through the digestive tract. More specifically, a plurality of radio-opaque markers were taken with a meal, and the time required from food ingestion to defecation (ti) and the number of markers contained in the evacuated feces (xi) were inspected based on x-ray images of the collected feces, followed by calculation of transit time through the digestive tract using the following formula. Transit time through the digestive tract indicates an average time required for a plurality of radio-opaque markers taken simultaneously to be evacuated. [formula]
A test sample in a dose shown in Table 1, together with 15 markers, were administered per day with meals to a healthy subject (1 person) not suffering from constipation, and the markers in the feces of the subject were identified thereafter. Test samples were administered for 3 days, and during which the transit times through the digestive tract of 5 or 6 meals were measured. Transit time through the digestive tract calculated by the above formula after each meal and the time required for the last marker to be evacuated (maximum transit time through the digestive tract) were recorded. […] Statistical treatment was performed using t-tests. In addition to the marker identification, the fecal weight and defecation frequency were recorded, and daily average fecal weight and defecation frequency were calculated, and shown in Table 1.

feces = conditions: 3 g a day; statistically significant; cited from earlier work
5 subjects = conditions: liquid preparation 2.4 g per 100 ml, 70 ml (974 mg in terms of magnesium) a day; cited from earlier work

OC[C@H]1O[C@@H](O[C@@H]2[C@@H](CO)OC(O)(CO)[C@H]2O)[C@H](O)[C@@H](O)[C@H]1O (mixture of isomers) [Lactulose]
Average Defecation Frequency ([1]; Dose/Day 1 g): 1.8 times/day
Average Fecal Weight ([1]; Dose/Day 1 g): 315 g/day
Maximum Transit Time through Digestive Tract (average) ([1]; Dose/Day 1 g): 34.4 (9.4) hour
Transit Time through Digestive Tract (average) ([1]; Dose/Day 1 g): 21.8 (3.1) hour
Azoreductase activity in feces (feces): lowered azoreductase activity
Nitroreductase activity in feces (feces): lowered nitroreductase activity
Number of the Bifidobacterium in feces (feces): increased number of the Bifidobacterium
Putrefactive metabolites in feces (feces): reduced putrefactive metabolites
β-glucuronidase activity in feces (feces): lowered β-glucuronidase activity

OC[C@H]1O[C@@H](O[C@H]2[C@H](O)[C@@H](O)[C@@H](O[C@]3(CO)O[C@H](CO)[C@@H](O)[C@@H]3O)O[C@@H]2CO)[C@H](O)[C@@H](O)[C@H]1O [Lactosucrose]
Average Defecation Frequency ([1]; Dose/Day 1.5 g): 2.0 times/day
Average Fecal Weight ([1]; Dose/Day 1.5 g): 267 g/day
Maximum Transit Time through Digestive Tract (average) ([1]; Dose/Day 1.5 g): 31.3 (8.6) hour
Transit Time through Digestive Tract (average) ([1]; Dose/Day 1.5 g): 19.7 (3.5) hour

[O]=[Mg] [Magnesium Oxide]
Transit time and maximum transit time through the digestive tract (in words) ([1]; 0.17 to 1.5 g a day, in comparison with no administration (control)): shortened transit time and maximum transit time through the digestive tract were observed
Average fecal weight (in words) ([1]; 1.0 to 1.5 g intake a day): more than doubled
Loose stools ([1]; 1.0 to 1.5 g intake a day): caused loose stools having high a moisture content
Average Defecation Frequency ([1]; Dose/Day 0.17 g): 2.3 times/day
Average Fecal Weight ([1]; Dose/Day 0.17 g): 274 g/day
Maximum Transit Time through Digestive Tract (average) ([1]; Dose/Day 0.17 g): 38.1 (10.1) hour
Transit Time through Digestive Tract (average) ([1]; Dose/Day 0.17 g): 20.6 (4.1) hour
Average Defecation Frequency ([1]; Dose/Day 0.35 g): 2.0 times/day
Average Fecal Weight ([1]; Dose/Day 0.35 g): 204 g/day
Maximum Transit Time through Digestive Tract (average) ([1]; Dose/Day 0.35 g): 32.4 (7.6) hour
Transit Time through Digestive Tract (average) ([1]; Dose/Day 0.35 g): 17.5 (3.1) hour
Average Defecation Frequency ([1]; Dose/Day 0.50 g): 2.3 times/day
Average Fecal Weight ([1]; Dose/Day 0.50 g): 313 g/day
Maximum Transit Time through Digestive Tract (average) ([1]; Dose/Day 0.50 g): 35.6 (6.9) hour
Transit Time through Digestive Tract (average) ([1]; Dose/Day 0.50 g): 21.6 (6.8) hour
Average Defecation Frequency ([1]; Dose/Day 0.75 g): 2.3 times/day
Average Fecal Weight ([1]; Dose/Day 0.75 g): 235 g/day
Maximum Transit Time through Digestive Tract (average) ([1]; Dose/Day 0.75 g): 34.9 (7.2) hour
Transit Time through Digestive Tract (average) ([1]; Dose/Day 0.75 g): 21.0 (4.3) hour
Average Defecation Frequency ([1]; Dose/Day 1.0 g): 2.0 times/day
Average Fecal Weight ([1]; Dose/Day 1.0 g): 414 g/day
Maximum Transit Time through Digestive Tract (average) ([1]; Dose/Day 1.0 g): 37.1 (8.2) hour
Transit Time through Digestive Tract (average) ([1]; Dose/Day 1.0 g): 22.9 (2.8) hour
Average Defecation Frequency ([1]; Dose/Day 1.5 g): 2.3 times/day
Average Fecal Weight ([1]; Dose/Day 1.5 g): 426 g/day
Maximum Transit Time through Digestive Tract (average) ([1]; Dose/Day 1.5 g): 35.6 (6.4) hour
Transit Time through Digestive Tract (average) ([1]; Dose/Day 1.5 g): 19.5 (1.9) hour
Loose stools ([1]; up to 0.75 g intake a day): loose stools were not caused

O=S(=O)([O-])[O-].[Mg+2] [Magnesium Sulfate]
Average Defecation Frequency ([1]; Dose/Day 4.5 g): 2.3 times/day
Average Fecal Weight ([1]; Dose/Day 4.5 g): 389 g/day
Maximum Transit Time through Digestive Tract (average) ([1]; Dose/Day 4.5 g): 35.8 (10.1) hour
Transit Time through Digestive Tract (average) ([1]; Dose/Day 4.5 g): 20.2 (2.4) hour
Cathartic effects ([1]; compared with magnesium oxide): stronger cathartic effects than magnesium oxide

OC[C@H]1O[C@H](OC[C@H]2O[C@H](O[C@]3(CO)O[C@H](CO)[C@@H](O)[C@@H]3O)[C@H](O)[C@@H](O)[C@@H]2O)[C@H](O)[C@@H](O)[C@H]1O [Raffinose]
Average Defecation Frequency ([1]; Dose/Day 2 g): 2.3 times/day
Average Fecal Weight ([1]; Dose/Day 2 g): 243 g/day
Maximum Transit Time through Digestive Tract (average) ([1]; Dose/Day 2 g): 31.0 (11.5) hour
Transit Time through Digestive Tract (average) ([1]; Dose/Day 2 g): 22.2 (2.5) hour

[O]=[Mg] [activated magnesium oxide]
Cathartic drug effect (5 subjects): its cathartic drug effect was shown
